Nine compounds from patent publication US7265121B2, “Chemical compounds” (Eli Lilly and Company, priority 2001, dated 2007) can be followed below.

The target in the first series is T1, human factor Xa (Homo sapiens, UniProt P00742).
T1 construct: 25 μL human factor Xa (32 nM in 0.03 M tris, 0.15 M NaCl, 1 mg/mL HSA); purchased Enzyme Research Laboratories (South Bend, Ind., USA)
T1 sequence (P00742 235-488 limits assumed): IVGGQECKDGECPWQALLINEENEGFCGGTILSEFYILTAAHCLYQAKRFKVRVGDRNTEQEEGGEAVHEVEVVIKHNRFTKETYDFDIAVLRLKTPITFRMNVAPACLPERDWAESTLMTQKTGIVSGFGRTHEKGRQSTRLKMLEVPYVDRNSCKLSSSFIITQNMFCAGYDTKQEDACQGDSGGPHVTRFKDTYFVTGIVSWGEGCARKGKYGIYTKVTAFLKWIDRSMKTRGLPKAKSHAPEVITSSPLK
T1 sequence (P00742 41-179 partner limits assumed): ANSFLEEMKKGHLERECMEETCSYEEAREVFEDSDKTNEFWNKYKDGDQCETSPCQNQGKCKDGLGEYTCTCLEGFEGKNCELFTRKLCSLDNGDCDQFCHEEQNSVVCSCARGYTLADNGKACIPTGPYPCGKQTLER
Description: Enzyme inhibition assay: apparent association constant (Kass) for human factor Xa, chromogenic substrate hydrolysis. Format: biochemical. The settings on record: human factor Xa 3.2 nM, BzIleGluGlyArgpNA substrate, approximately inverse of Ki. The procedure:
Human factor Xa and human thrombin are purchased from Enzyme Research Laboratories (South Bend, Ind., USA). Other proteases are from other commercial sources. Chromogenic para-nitroanilide peptide protease substrates are purchased from Midwest Biotech (Fishers, Ind., USA).
The binding affinities for human factor Xa are were measured as apparent association constants (Kass) derived from protease inhibition kinetics as described previously.^a,b,c,d The apparent Kass values are obtained using automated (BioMek-1000) dilutions of inhibitors (Kass determinations are performed in triplicate at each of four-eight inhibitor concentrations) into 96-well plates and chromogenic substrate hydrolysis rates determined at 405 nm using a Thermomax plate reader from Molecular Devices (San Francisco). For factor Xa inhibition, the assay protocol is: 50 μL buffer (0.06 M tris, 0.3 M NaCl, pH 7.4); 25 μL inhibitor test solution (in MeOH); 25 μL human factor Xa (32 nM in 0.03 M tris, 0.15 M NaCl, 1 mg/mL HSA); finally, 150 μL BzIleGluGlyArgpNA (0.3 mM in water) added within 2 min to start hydrolysis. Final [factor Xa] is 3.2 nM. [Free Xa] and [bound Xa] are determined from linear standard curves on the same plate by use of SoftmaxPro software for each inhibitor concentration and apparent Kass calculated for each inhibitor concentration which produced hydrolysis inhibition between 20% and 80% of the control (3.2 nM factor Xa): apparent Kass [E:I]/[Ef][If]=[Eb]/[Ef][I^o−Ib]. The apparent Kass values so obtained are approximately the inverse of the Ki for the respective inhibitors [1/appKass=app Ki]. The variability of mean apparent Kass values determined at the single substrate concentration is +/−15%. The assay system Km was measured as 0.347+/−0.031 mM [n=4]; and Vmax was 13.11+/−0.76 μM/min.
For `COc1ccc(C(=O)N[C@@H](C(=O)N2CCC(C3CCN(C)CC3)CC2)C(C)C)cc1.Cl` [Example 6, 1-(4-Methoxybenzoyl-D-valinyl)-4-(1-methylpiperidin-4-yl)-piperidine Hydrochloride], the Kass result is recorded as “about 20 ×10^6 L/mole”.

On to `CC(C)[C@@H](NC(=O)c1ccc2cc[nH]c2c1)C(=O)N1CCC(C2CCN(C)CC2)CC1.Cl` [Example 9, 1-(Indole-6-carbonyl-D-valinyl)-4-(1-methylpiperidin-4-yl)piperidine Hydrochloride], for which the Kass was roughly 8.9e+07 L/mol.

In the case of `CC(C)[C@@H](NC(=O)c1cc2cc(Cl)ccc2[nH]1)C(=O)N1CCN(C2CCN(C)CC2)CC1.Cl` [Example 18, 1-(5-Chloroindole-2-carbonyl-D-valinyl)-4-(1-methylpiperidin-4-yl)piperazine Hydrochloride], the Kass was roughly 3.58e+08 L/mol.

System in another series: not given
Assay: not given
Conditions: not given
By melting point is commonly meant the temperature, or range, at which the solid turns liquid. As to `C#CC[C@@H](NC(=O)c1cc2cc(Cl)ccc2[nH]1)C(=O)N1CCN(C2CCN(C)CC2)CC1.Cl`, the melting point was 174 to 185 °C (dec.).

Take `C#CC[C@@H](NC(=O)c1ccc2cc[nH]c2c1)C(=O)N1CCN(C2CCN(C)CC2)CC1.Cl`: the melting point is 170 to 180 °C (dec.).

Take `C#CC[C@@H](NC(=O)c1cc2ccc(Cl)cc2s1)C(=O)N1CCN(C2CCN(C)CC2)CC1.Cl`: the melting point is 115 to 135 °C (dec.).

`C=CC[C@@H](NC(=O)c1ccc2cc[nH]c2c1)C(=O)N1CCN(C2CCN(C)CC2)CC1.Cl`: the melting point is 110 to 115 °C (dec.).

In the case of `C=CC[C@@H](NC(=O)c1cc2ccc(Cl)cc2s1)C(=O)N1CCN(C2CCN(C)CC2)CC1.Cl`, the melting point is 130 to 135 °C (dec.).

As for `C=CC[C@@H](NC(=O)c1cc2cc(Cl)ccc2[nH]1)C(=O)N1CCN(C2CCN(C)CC2)CC1.Cl`, the melting point was 170 to 175 °C (dec.).
